Experimental data taken from patent US8450266B2 (Ipsen Pharma S.A.S., priority 2008, dated 2013).
Where a SMILES comes first, the peptide text is derived from it. [ ]: non-standard residue; d: D form. The star is where a group is joined. Ac6c = NC1(C(=O)O)CCCCC1; X1 = CCCN1C(=O)CC(*)C1=O

Experiments:
[1] = Human plasma half-life assay (LC-MS); format: in vitro ADME; details: incubated at 37° C., read-out: Human Plasma T½ (converted)
Procedure, shortened: (§1)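 Aliquots taken from human or rat plasma at time points up to 72 h, quenched with formic acid and acetonitrile, centrifuged. Supernatant analyzed by LC-MS (ESI, positive ion, full scan) on a C8 column with a water/acetonitrile 1% formic acid gradient.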

[2] = Rat plasma half-life assay (LC-MS); format: in vitro ADME; details: incubated at 37° C., read-out: Rat Plasma T½ (converted)
Procedure, shortened: as §1

| SMILES | half-life at 0.1 mg/mL [1] [h] | half-life at 0.1 mg/mL [2] [h] |
| --- | --- | --- |
| CC[C@H](C)[C@H](NC(=O)[C@H](CO)NC(=O)[C@H](Cc1ccc(O)cc1)NC(=O)[C@H](CC(=O)O)NC(=O)[C@H](CO)NC(=O)C1(NC(C)=O)CCCCC1)C(=O)N[C@@H](C)C(=O)N[C@@H](CCSC)C(=O)N[C@@H](CC(=O)O)C(=O)N[C@@H](CCCCN)C(=O)N[C@H](C(=O)N[C@@H](Cc1c[nH]cn1)C(=O)N[C@@H](CCC(N)=O)C(=O)N[C@@H](CCC(N)=O)C(=O)N[C@@H](CC(=O)O)C(=O)N[C@@H](Cc1ccccc1)C(=O)N[C@H](C(=O)N[C@@H](CC(N)=O)C(=O)N[C@@H](Cc1c[nH]c2ccccc12)C(=O)N[C@@H](CC(C)C)C(=O)N[C@@H](CC(C)C)C(=O)N[C@@H](C)C(=O)N[C@@H](CCC(N)=O)C(=O)N[C@@H](CCCCN)C(=O)N[C@@H](Cc1ccc2ccccc2c1)C(=O)N[C@@H](CCCCN)C(=O)N[C@@H](CCCCN)C(=O)N[C@@H](CC(N)=O)C(=O)N[C@@H](CC(=O)O)C(=O)N[C@@H](Cc1c[nH]c2ccccc12)C(=O)N[C@@H](CCCCN)C(=O)N[C@@H](Cc1c[nH]cn1)C(=O)N[C@@H](CC(N)=O)C(=O)N[C@H](C(=O)N[C@H](C(=O)N[C@@H](CCC(N)=O)C(=O)O)[C@@H](C)O)[C@@H](C)CC)C(C)C)[C@@H](C)CC [Example 24, (Ac-A6c^7, 2Nal^31)hGIP(7-42)-OH] (HELM PEPTIDE1{[ac].[O=C(C1(N[*:1])CCCCC1)[*:2]].S.D.Y.S.I.A.M.D.K.I.H.Q.Q.D.F.V.N.W.L.L.A.Q.K.[O=C([C@H](Cc1ccc2ccccc2c1)N[*:1])[*:2]].K.K.N.D.W.K.H.N.I.T.Q}$$$$V2.0) | 26.3 | 12.2 |
| CC[C@H](C)[C@H](NC(=O)[C@H](CO)NC(=O)[C@H](Cc1ccc(O)cc1)NC(=O)[C@H](CC(=O)O)NC(=O)[C@H](CO)NC(=O)C1(NC(C)=O)CCCCC1)C(=O)N[C@@H](C)C(=O)N[C@@H](CCSC)C(=O)N[C@@H](CC(=O)O)C(=O)N[C@@H](CCCCN)C(=O)N[C@H](C(=O)N[C@@H](Cc1c[nH]cn1)C(=O)N[C@@H](CCC(N)=O)C(=O)N[C@@H](CCC(N)=O)C(=O)N[C@@H](CC(=O)O)C(=O)N[C@@H](Cc1ccccc1)C(=O)N[C@H](C(=O)N[C@@H](CC(N)=O)C(=O)N[C@@H](Cc1c[nH]c2ccccc12)C(=O)N[C@@H](CC(C)C)C(=O)N[C@@H](CC(C)C)C(=O)N[C@@H](C)C(=O)N[C@@H](CCC(N)=O)C(=O)N[C@@H](CCCCN)C(=O)N[C@H](Cc1ccc2ccccc2c1)C(=O)N[C@@H](CCCCN)C(=O)N[C@@H](CCCCN)C(=O)N[C@@H](CC(N)=O)C(=O)N[C@@H](CC(=O)O)C(=O)N[C@@H](Cc1c[nH]c2ccccc12)C(=O)N[C@@H](CCCCN)C(=O)N[C@@H](Cc1c[nH]cn1)C(=O)N[C@@H](CC(N)=O)C(=O)N[C@H](C(=O)N[C@H](C(=O)N[C@@H](CCC(N)=O)C(=O)O)[C@@H](C)O)[C@@H](C)CC)C(C)C)[C@@H](C)CC [Example 25, (Ac-A6c^7, D-2Nal^31)hGIP(7-42)-OH] (HELM PEPTIDE1{[ac].[O=C(C1(N[*:1])CCCCC1)[*:2]].S.D.Y.S.I.A.M.D.K.I.H.Q.Q.D.F.V.N.W.L.L.A.Q.K.[O=C([C@@H](Cc1ccc2ccccc2c1)N[*:1])[*:2]].K.K.N.D.W.K.H.N.I.T.Q}$$$$V2.0) | > 50 | 13.7 |
| CCCN1C(=O)CC(SC[C@H](NC(=O)[C@H](CCCCN)NC(=O)[C@H](CCC(N)=O)NC(=O)[C@H](C)NC(=O)[C@H](CC(C)C)NC(=O)[C@H](CC(C)C)NC(=O)[C@H](Cc2c[nH]c3ccccc23)NC(=O)[C@H](CC(N)=O)NC(=O)[C@@H](NC(=O)[C@H](Cc2ccccc2)NC(=O)[C@H](CC(=O)O)NC(=O)[C@H](CCC(N)=O)NC(=O)[C@H](CCC(N)=O)NC(=O)[C@H](Cc2c[nH]cn2)NC(=O)[C@@H](NC(=O)[C@H](CCCCN)NC(=O)[C@H](CC(=O)O)NC(=O)[C@H](CCSC)NC(=O)[C@H](C)NC(=O)[C@@H](NC(=O)[C@H](CO)NC(=O)[C@H](Cc2ccc(O)cc2)NC(=O)[C@H](CC(=O)O)NC(=O)[C@H](CO)NC(=O)C2(NC(C)=O)CCCCC2)[C@@H](C)CC)[C@@H](C)CC)C(C)C)C(=O)N[C@@H](CCCCN)C(=O)N[C@@H](CCCCN)C(=O)N[C@@H](CC(N)=O)C(N)=O)C1=O (stereo partly shown) [Example 28, (Ac-A6c^7, Cys(Psu)^31]hGIP(7-34)-NH2] | 8.8 | 4.1 |
| CCCN1C(=O)CC(SC[C@H](NC(=O)[C@H](CCCCN)NC(=O)[C@H](CCC(N)=O)NC(=O)[C@H](C)NC(=O)[C@H](CC(C)C)NC(=O)[C@H](CC(C)C)NC(=O)[C@H](Cc2c[nH]c3ccccc23)NC(=O)[C@H](CC(N)=O)NC(=O)[C@@H](NC(=O)[C@H](Cc2ccccc2)NC(=O)[C@H](CC(=O)O)NC(=O)[C@H](CCC(N)=O)NC(=O)[C@H](CCC(N)=O)NC(=O)[C@H](Cc2c[nH]cn2)NC(=O)[C@@H](NC(=O)[C@H](CCCCN)NC(=O)[C@H](CC(=O)O)NC(=O)[C@H](CCSC)NC(=O)[C@H](C)NC(=O)[C@@H](NC(=O)[C@H](CO)NC(=O)[C@H](Cc2ccc(O)cc2)NC(=O)[C@H](CC(=O)O)NC(=O)[C@H](CO)NC(=O)C2(NC(C)=O)CCCCC2)[C@@H](C)CC)[C@@H](C)CC)C(C)C)C(N)=O)C1=O (stereo partly shown) [Example 29, [Ac-A6c^7, Cys(Psu)^31]hGIP(7-31)-NH2] | 12.2 | 7 |
| CCCN1C(=O)CC(SC[C@H](NC(=O)[C@H](CCCCN)NC(=O)[C@H](CCC(N)=O)NC(=O)[C@H](C)NC(=O)[C@H](CC(C)C)NC(=O)[C@H](CC(C)C)NC(=O)[C@H](Cc2c[nH]c3ccccc23)NC(=O)[C@H](CC(N)=O)NC(=O)[C@@H](NC(=O)[C@H](Cc2ccccc2)NC(=O)[C@H](CC(=O)O)NC(=O)[C@H](CCC(N)=O)NC(=O)[C@H](CCC(N)=O)NC(=O)[C@H](Cc2c[nH]cn2)NC(=O)[C@@H](NC(=O)[C@H](CCCCN)NC(=O)[C@H](CC(=O)O)NC(=O)[C@H](CCSC)NC(=O)[C@H](C)NC(=O)[C@@H](NC(=O)[C@H](CO)NC(=O)[C@H](Cc2ccc(O)cc2)NC(=O)[C@H](CC(=O)O)NC(=O)[C@H](CO)NC(=O)C2(NC(=O)[C@H](Cc3ccccc3)NC(C)=O)CCCCC2)[C@@H](C)CC)[C@@H](C)CC)C(C)C)C(=O)N[C@@H](CCCCN)C(=O)N[C@@H](CCCCN)C(=O)N[C@@H](CC(N)=O)C(=O)N[C@@H](CC(=O)O)C(=O)N[C@@H](Cc2c[nH]c3ccccc23)C(=O)N[C@@H](CCCCN)C(=O)N[C@@H](Cc2c[nH]cn2)C(=O)N[C@@H](CC(N)=O)C(=O)N[C@H](C(=O)N[C@H](C(=O)N[C@@H](CCC(N)=O)C(=O)O)[C@@H](C)O)[C@@H](C)CC)C1=O (stereo partly shown) [Example 30, [Ac-Phe^6, A6c^7, Cys(Psu)^31]hGIP(6-42)-OH] (Ac-F[Ac6c]SDYSIAMDKIHQQDFVNWLLAQKC(X1)KKNDWKHNITQ-OH) | 7.2 | 7.6 |
